We go through eleven compounds from patent US20240158367A1, “TRICYCLIC COMPOUND AS HIF2-ALPHA INHIBITOR, PREPARATION METHOD THEREFOR AND APPLICATION THEREOF” (SHANGHAI JEMINCARE PHARMACEUTICALS CO., LTD, priority 2021, published 2024).

pEC50: −log10 of the molar value.

The test system of data set [1] is VEGF expression in 786-O cells. The experiment in a line: VEGF ELISA assay in 786-O cells. In kind it is cell-based. The conditions noted are these: about 48 hours incubation. The protocol: 100×DMSO stock solution dissolved with the drug was prepared in assay medium (RPMI-1640 containing 2% FBS; FBS: 10099141C, Gibco; RPMI-1640: 12440053, Gibco) to formulate a series of dilutions of 10×compounds. To a clear flat-bottom 96-well plate (3599, Corning) was added 20 μL of the 10×compound dilution. Then approximately 40,000 786-O cells (ATCC®CRL-1932™) in 180 μL of culture medium were seeded into the 96-well plate. The final concentration of DMSO (D2650, Sigma) in each well was 0.1%. After incubating in the incubator for about 48 hours, 100 μL of the upper medium from each well was pipetted and placed in a new 96-well plate (3799, Corning). An ELISA kit (DY293B, R&D Systems) was used. The concentration of VEGF was determined according to the OD value of each well at […] detected by a microplate reader. EC50 values were calculated by GraphPad Prism software using the dose-response-inhibition (four parameter) equation.

In data set [2] the test system is HIF response element(HRE)-dependent luciferase in 786-O-HRE-Luc cells. Put plainly: Luciferase assay in 786-O-HRE-Luc cells. In kind it is cell-based. The conditions noted are these: approximately 24 hours incubation. As to the method: 786-O-HRE-Luc cells were obtained by infecting 786-O (ATCC®CRL-1932™) cells purchased from ATCC with commercial lentivirus. Appropriate 786-O-HRE-Luc single cell clones were screened, expanded, and used for the subsequent luciferase assay. For the luciferase assay, 100×DMSO stock solution dissolved with the drug was prepared in assay medium (RPMI-1640 containing 2% FBS; FBS: 10099141C, Gibco; RPMI-1640: 12440053, Gibco) to formulate a series of dilutions of 10×compounds. To a clear flat-bottom 96-well plate (3599, Corning) was added 20 μL of the 10×compound dilution. Then approximately 100,000 786-O-HRE-Luc cells in 180 μL of culture medium were seeded into the 96-well plate. The final concentration of DMSO (D2650, Sigma) in each well was 0.1%. After approximately 24 hours of incubation in the incubator, luciferase activity was determined using the Dual-Luciferase Reporter Assay System (E1960, Promega) reagent following the manufacturer's recommended method. EC50 values were calculated by GraphPad Prism software using the dose-response-inhibition (four parameter) equation.

Data set [3] in a line: Pharmacokinetic test in SD rats by gavage.
Method: animals: SD rats, male, 200 to 220 g, purchased from Shanghai Jiesijie Laboratory Animal Co., Ltd.
The SD rats in each test compound group (3 rats in each group) were fasted overnight and then intragastrically administered the compounds (PO, administration dosage of 10 mg/kg or 5 mg/kg, administration volume of 10 mL/kg), and given food 4 hours after administration.
Approximately 0.2 mL of blood was collected from the jugular vein before administration and 0.083 hours, 0.25 hours, 0.5 hours, 1 hour, 2 hours, 4 hours, 6 hours, 8 hours, and 24 hours after administration, anticoagulated with sodium heparin. Blood samples were placed on ice after collection, and plasma was separated by centrifugation (centrifugation conditions: 1500 g, 10 minutes). The collected plasma was stored at −40° C. to −20° C. before analysis.
LC-MS/MS was used to determine the content of the test compound in rat plasma after intragastric administration.
[4] abbreviates: SD rats, male, PO 10 mg/kg, plasma.
[5] abbreviates: male, SD, rat, in vivo, po, 5 mg/kg.

The term pEC50 denotes the negative decadic logarithm of the EC50, by convention in mol/L. In data set [1], `N=S1(=O)c2ccc(Oc3cc(F)cc(Cl)c3)c3c2C(O)(CC3F)C1(F)F` (centres unmarked) [Compound 1] gave a pEC50 of 6.94.

Take `N#Cc1cc(F)cc(Oc2ccc3c4c2C(F)CC4(O)C(F)(F)S3(=N)=O)c1` (centres unmarked) [Compound 2]: the pEC50 in data set [2] was 7.34.

With `N#Cc1cncc(Oc2ccc3c4c2[C@@H](F)[C@H](F)[C@]4(O)C(F)(F)S3(=O)=O)c1` [Compound 3-P1], the values for the negative-log EC50 (pEC50) in data set [2] and in data set [1] were 7.17 and 6.74, respectively.

As to `N#Cc1cncc(Oc2ccc3c4c2[C@H](F)[C@@H](F)[C@@]4(O)C(F)(F)S3(=O)=O)c1` [Compound 3-P2], the pEC50 in data set [2] is 5.40; in data set [1], 5.56.

On to `N#Cc1cncc(Oc2ccc3c4c2[C@@H](F)[C@@H](F)[C@]4(O)C(F)(F)S3(=O)=O)c1` [Compound 3-P3], for which, in data set [2], the pEC50 is 7.91. In data set [1], the negative-log EC50 (pEC50) was 7.51. Further, the “Plasma concentration and area under the curve compared with comparative example PT2385” value in data set [3] (SD rats, PO, 10 mg/kg vs PT2385 5 mg/kg) was “significantly improved plasma concentration and area under the curve”. Also, in data set [3] (setting [4]), the “Area under the curve AUC0-∞” value is 24806 ng·h/mL and the “Plasma concentration Cmax” value was determined as 4646 ng/mL.

Consider `N#Cc1cncc(Oc2ccc3c4c2[C@H](F)[C@H](F)[C@@]4(O)C(F)(F)S3(=O)=O)c1` [Compound 3-P4], for which the values for the pEC50 in data set [2] and in data set [1] were 5.19 and 5.31, respectively.

`N#Cc1cc(F)cc(Oc2ccc3c4c2[C@@H](F)[C@H](F)[C@]4(O)C(F)(F)S3(=O)=O)c1` [Compound 4-P1]: the pEC50 in data set [2] was 7.72; in data set [1], 7.39.

With `N#Cc1cc(F)cc(Oc2ccc3c4c2[C@H](F)[C@@H](F)[C@@]4(O)C(F)(F)S3(=O)=O)c1` [Compound 4-P2], the pEC50 in data set [2] is 7.31; in data set [1], 7.26.

In the case of `N#Cc1cc(F)cc(Oc2ccc3c4c2[C@@H](F)[C@@H](F)[C@]4(O)C(F)(F)S3(=O)=O)c1` [Compound 4-P3], the pEC50 is 8.21 in data set [2] and 7.82 in data set [1].

Regarding `N#Cc1cc(F)cc(Oc2ccc3c4c2[C@H](F)[C@H](F)[C@@]4(O)C(F)(F)S3(=O)=O)c1` [Compound 4-P4], the pEC50 is 6.29 in data set [2] and 6.13 in data set [1].

Broadly, the AUC(0-inf) is the area under the concentration-time curve extrapolated to infinity. Read a low AUC(0-inf) as less exposure. As a reminder, the Cmax is the peak of the concentration-time curve. Turning to `CS(=O)(=O)c1ccc(Oc2cc(F)cc(C#N)c2)c2c1[C@H](O)C(F)(F)C2` [PT2385, reference compound], in data set [3] (setting [5]), the AUC(0-inf) turned out to be 843 ng·h/mL and the Cmax was determined as 193 ng/mL.
